Source: US9714244B2, “Substituted pyrido[4,3-d]pyrimidines as Wee-1 inhibitors” (ALMAC DISCOVERY LIMITED, priority 2013, dated 2017)

How the values were obtained:
[1] = target: ABL1 (Homo sapiens (Human), UniProt P00519); assay: SelectScreen Kinase Profiling: ABL1; format: biochemical; conditions: 300-350 nM
Text: (§1) Table 2 below highlights the selectivity of a representative compound of the invention against a panel of 50 kinases (assessed using the Invitrogen SelectScreen® Kinase Profiling Service).

[2] = target: MAPKAPK2 (Homo sapiens (Human), UniProt P49137); assay: SelectScreen Kinase Profiling: MAPKAPK2; format: biochemical; conditions: 300-350 nM
Text: as §1

[3] = target: ROCK1 (Homo sapiens (Human), UniProt Q13464); assay: SelectScreen Kinase Profiling: ROCK1; format: biochemical; conditions: 300-350 nM
ROCK1, sequence (Q13464 whole entry): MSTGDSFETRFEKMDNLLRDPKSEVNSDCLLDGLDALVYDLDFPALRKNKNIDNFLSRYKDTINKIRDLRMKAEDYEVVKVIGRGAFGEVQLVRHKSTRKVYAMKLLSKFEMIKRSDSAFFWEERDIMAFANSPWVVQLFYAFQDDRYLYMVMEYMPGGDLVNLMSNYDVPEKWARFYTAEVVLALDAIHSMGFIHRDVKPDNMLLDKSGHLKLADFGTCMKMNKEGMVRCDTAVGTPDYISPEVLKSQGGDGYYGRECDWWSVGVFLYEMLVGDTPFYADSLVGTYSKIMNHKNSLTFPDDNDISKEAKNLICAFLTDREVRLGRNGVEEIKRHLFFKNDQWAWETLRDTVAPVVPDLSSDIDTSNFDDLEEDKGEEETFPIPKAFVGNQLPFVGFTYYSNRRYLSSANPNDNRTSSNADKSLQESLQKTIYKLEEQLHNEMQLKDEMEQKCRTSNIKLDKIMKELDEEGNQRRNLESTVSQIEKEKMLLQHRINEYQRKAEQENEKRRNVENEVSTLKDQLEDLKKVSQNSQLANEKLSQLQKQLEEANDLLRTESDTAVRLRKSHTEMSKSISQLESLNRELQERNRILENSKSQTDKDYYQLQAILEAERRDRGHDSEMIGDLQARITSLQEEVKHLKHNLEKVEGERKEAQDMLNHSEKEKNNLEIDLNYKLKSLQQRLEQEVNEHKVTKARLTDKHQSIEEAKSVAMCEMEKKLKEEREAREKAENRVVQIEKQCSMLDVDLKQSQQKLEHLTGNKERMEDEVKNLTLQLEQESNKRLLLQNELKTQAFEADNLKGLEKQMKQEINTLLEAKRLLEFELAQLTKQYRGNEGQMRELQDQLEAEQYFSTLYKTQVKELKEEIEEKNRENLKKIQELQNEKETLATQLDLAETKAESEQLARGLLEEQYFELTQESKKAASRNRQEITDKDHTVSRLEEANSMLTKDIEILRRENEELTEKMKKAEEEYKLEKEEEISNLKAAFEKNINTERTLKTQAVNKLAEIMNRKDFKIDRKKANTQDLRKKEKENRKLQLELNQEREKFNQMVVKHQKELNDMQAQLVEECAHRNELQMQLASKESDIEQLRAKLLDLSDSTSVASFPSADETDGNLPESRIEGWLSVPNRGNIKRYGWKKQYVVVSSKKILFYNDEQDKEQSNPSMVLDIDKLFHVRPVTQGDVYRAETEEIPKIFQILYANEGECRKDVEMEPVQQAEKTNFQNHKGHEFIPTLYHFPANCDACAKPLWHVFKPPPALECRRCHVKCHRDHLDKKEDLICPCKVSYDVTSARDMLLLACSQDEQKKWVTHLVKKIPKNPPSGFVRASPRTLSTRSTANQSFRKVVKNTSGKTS
Text: as §1

[4] = target: ERBB2 (HER2) (Homo sapiens (Human), UniProt P04626); assay: SelectScreen Kinase Profiling: ERBB2; format: biochemical; conditions: 300-350 nM
Text: as §1

[5] = target: LCK (Homo sapiens (Human), UniProt P06239); assay: SelectScreen Kinase Profiling: LCK; format: biochemical; conditions: 300-350 nM
Text: as §1

[6] = target: JAK3 (Homo sapiens (Human), UniProt P52333); assay: SelectScreen Kinase Profiling: JAK3; format: biochemical; conditions: 300-350 nM
Text: as §1

[7] = target: RET (Homo sapiens (Human), UniProt P07949); assay: SelectScreen Kinase Profiling: RET; format: biochemical; conditions: 300-350 nM
RET, sequence (P07949 29-1114): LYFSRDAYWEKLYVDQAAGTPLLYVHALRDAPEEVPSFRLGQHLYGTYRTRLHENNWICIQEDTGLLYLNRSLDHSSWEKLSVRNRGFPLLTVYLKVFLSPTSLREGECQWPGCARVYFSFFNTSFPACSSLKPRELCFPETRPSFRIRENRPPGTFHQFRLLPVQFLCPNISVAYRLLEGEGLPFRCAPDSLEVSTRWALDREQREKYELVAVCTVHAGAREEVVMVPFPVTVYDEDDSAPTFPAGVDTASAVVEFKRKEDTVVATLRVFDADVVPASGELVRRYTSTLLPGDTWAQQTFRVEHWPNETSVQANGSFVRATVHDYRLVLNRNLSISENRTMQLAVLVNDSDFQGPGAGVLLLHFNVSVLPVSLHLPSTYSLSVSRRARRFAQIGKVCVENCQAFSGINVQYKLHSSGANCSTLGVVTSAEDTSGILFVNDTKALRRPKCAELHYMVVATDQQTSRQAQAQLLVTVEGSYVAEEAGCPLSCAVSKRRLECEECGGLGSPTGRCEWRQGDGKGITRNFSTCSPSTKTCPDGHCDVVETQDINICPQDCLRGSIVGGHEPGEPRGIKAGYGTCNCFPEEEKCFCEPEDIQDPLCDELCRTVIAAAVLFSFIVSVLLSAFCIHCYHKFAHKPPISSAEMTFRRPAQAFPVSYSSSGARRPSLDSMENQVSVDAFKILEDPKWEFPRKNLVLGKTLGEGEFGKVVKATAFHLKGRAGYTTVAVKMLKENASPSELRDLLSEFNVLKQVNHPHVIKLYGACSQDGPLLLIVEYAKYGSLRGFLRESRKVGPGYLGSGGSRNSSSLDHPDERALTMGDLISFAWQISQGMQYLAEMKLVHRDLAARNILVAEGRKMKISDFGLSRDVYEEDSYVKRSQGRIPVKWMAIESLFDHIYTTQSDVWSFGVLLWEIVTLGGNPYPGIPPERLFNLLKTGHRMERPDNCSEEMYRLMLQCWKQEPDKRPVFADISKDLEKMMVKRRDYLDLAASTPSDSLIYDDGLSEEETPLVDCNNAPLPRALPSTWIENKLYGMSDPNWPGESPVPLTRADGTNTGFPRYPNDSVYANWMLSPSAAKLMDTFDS
Text: as §1

[8] = target: PIM1 (Homo sapiens (Human), UniProt P11309); assay: SelectScreen Kinase Profiling: PIM1; format: biochemical; conditions: 300-350 nM
Text: as §1

[9] = target: BTK (Homo sapiens (Human), UniProt Q06187); assay: SelectScreen Kinase Profiling: BTK; format: biochemical; conditions: 300-350 nM
Text: as §1

[10] = target: TEK (Tie2) (Homo sapiens (Human), UniProt Q02763); assay: SelectScreen Kinase Profiling: TEK; format: biochemical; conditions: 300-350 nM
Text: as §1

[11] = target: IKBKB (IKK beta) (Homo sapiens (Human), UniProt O14920); assay: SelectScreen Kinase Profiling: IKBKB; format: biochemical; conditions: 300-350 nM
Text: as §1

[12] = target: AKT1 (PKB alpha) (Homo sapiens (Human), UniProt P31749); assay: SelectScreen Kinase Profiling: AKT1; format: biochemical; conditions: 300-350 nM
Text: as §1

[13] = target: PLK1 (Homo sapiens (Human), UniProt P53350); assay: SelectScreen Kinase Profiling: PLK1; format: biochemical; conditions: 300-350 nM
Text: as §1

[14] = target: DYRK3 (Homo sapiens (Human), UniProt O43781); assay: SelectScreen Kinase Profiling: DYRK3; format: biochemical; conditions: 300-350 nM
DYRK3, sequence (O43781 whole entry): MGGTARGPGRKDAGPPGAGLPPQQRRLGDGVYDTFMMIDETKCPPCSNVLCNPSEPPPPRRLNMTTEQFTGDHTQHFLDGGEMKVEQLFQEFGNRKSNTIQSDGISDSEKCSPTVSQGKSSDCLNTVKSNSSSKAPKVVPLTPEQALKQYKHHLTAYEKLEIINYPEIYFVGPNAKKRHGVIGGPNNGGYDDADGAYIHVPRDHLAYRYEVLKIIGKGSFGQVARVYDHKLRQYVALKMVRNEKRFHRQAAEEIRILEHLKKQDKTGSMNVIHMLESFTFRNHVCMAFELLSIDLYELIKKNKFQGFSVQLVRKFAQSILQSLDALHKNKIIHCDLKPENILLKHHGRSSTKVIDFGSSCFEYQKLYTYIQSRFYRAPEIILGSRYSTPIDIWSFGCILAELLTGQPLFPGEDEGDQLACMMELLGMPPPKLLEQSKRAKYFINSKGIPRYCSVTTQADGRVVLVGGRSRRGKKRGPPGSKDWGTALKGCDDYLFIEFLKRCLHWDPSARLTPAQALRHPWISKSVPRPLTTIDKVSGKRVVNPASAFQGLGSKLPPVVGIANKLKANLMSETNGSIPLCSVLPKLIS
Text: as §1

[15] = target: AURKA (Aurora A) (Homo sapiens (Human), UniProt O14965); assay: SelectScreen Kinase Profiling: AURKA; format: biochemical; conditions: 300-350 nM
Text: as §1

[16] = target: SYK (Homo sapiens (Human), UniProt P43405); assay: SelectScreen Kinase Profiling: SYK; format: biochemical; conditions: 300-350 nM
Text: as §1

[17] = target: INSR (Homo sapiens (Human), UniProt P06213); assay: SelectScreen Kinase Profiling: INSR; format: biochemical; conditions: 300-350 nM
Text: as §1

[18] = target: NTRK1 (TRKA) (Homo sapiens (Human), UniProt P04629); assay: SelectScreen Kinase Profiling: NTRK1; format: biochemical; conditions: 300-350 nM
Text: as §1

[19] = target: CSNK2A1 (CK2 alpha 1) (Homo sapiens (Human), UniProt P68400); assay: SelectScreen Kinase Profiling: CSNK2A1; format: biochemical; conditions: 300-350 nM
Text: as §1

[20] = target: MAPK14 (p38 alpha) (Homo sapiens (Human), UniProt Q16539); assay: SelectScreen Kinase Profiling: MAPK14; format: biochemical; conditions: 300-350 nM
Text: as §1

[21] = target: PRKCB1 (PKC beta I) (Homo sapiens (Human), UniProt P05771); assay: SelectScreen Kinase Profiling: PRKCB1; format: biochemical; conditions: 300-350 nM
PRKCB1 (PKC beta I), sequence (P05771 whole entry): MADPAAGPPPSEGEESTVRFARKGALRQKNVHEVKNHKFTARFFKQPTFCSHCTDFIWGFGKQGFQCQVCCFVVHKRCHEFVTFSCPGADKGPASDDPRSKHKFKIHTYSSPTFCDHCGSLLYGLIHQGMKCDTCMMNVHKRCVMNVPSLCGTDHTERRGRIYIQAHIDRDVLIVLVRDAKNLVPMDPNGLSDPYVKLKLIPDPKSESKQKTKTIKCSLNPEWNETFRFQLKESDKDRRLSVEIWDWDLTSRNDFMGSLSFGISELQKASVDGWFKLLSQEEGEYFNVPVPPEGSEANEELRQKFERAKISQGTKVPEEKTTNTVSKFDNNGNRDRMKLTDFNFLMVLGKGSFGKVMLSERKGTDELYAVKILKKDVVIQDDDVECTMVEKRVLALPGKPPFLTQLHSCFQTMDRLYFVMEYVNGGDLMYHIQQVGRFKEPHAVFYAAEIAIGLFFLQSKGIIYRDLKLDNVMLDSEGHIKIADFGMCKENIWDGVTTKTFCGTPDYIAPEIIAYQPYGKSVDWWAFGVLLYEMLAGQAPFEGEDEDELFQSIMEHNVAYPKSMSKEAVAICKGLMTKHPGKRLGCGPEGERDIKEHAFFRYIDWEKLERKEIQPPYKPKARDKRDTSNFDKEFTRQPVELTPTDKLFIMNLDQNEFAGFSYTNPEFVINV
Text: as §1

[22] = target: CHEK1 (CHK1) (Homo sapiens (Human), UniProt O14757); assay: SelectScreen Kinase Profiling: CHEK1; format: biochemical; conditions: 300-350 nM
Text: as §1

[23] = target: FRAP1 (mTOR) (Homo sapiens (Human), UniProt P42345); assay: SelectScreen Kinase Profiling: FRAP1; format: biochemical; conditions: 300-350 nM
Text: as §1

[24] = target: CSNK1G2 (CK1 gamma 2) (Homo sapiens (Human), UniProt P78368); assay: SelectScreen Kinase Profiling: CSNK1G2; format: biochemical; conditions: 300-350 nM
Text: as §1

[25] = target: MARK2 (Homo sapiens (Human), UniProt Q7KZI7); assay: SelectScreen Kinase Profiling: MARK2; format: biochemical; conditions: 300-350 nM
Text: as §1

[26] = target: Src (Homo sapiens (Human), UniProt P12931); assay: SelectScreen Kinase Profiling: SRC; format: biochemical; conditions: 300-350 nM
[27] = target: NEK1 (Homo sapiens (Human), UniProt Q96PY6); assay: SelectScreen Kinase Profiling: NEK1; format: biochemical; conditions: 300-350 nM
NEK1, sequence (Q96PY6 whole entry): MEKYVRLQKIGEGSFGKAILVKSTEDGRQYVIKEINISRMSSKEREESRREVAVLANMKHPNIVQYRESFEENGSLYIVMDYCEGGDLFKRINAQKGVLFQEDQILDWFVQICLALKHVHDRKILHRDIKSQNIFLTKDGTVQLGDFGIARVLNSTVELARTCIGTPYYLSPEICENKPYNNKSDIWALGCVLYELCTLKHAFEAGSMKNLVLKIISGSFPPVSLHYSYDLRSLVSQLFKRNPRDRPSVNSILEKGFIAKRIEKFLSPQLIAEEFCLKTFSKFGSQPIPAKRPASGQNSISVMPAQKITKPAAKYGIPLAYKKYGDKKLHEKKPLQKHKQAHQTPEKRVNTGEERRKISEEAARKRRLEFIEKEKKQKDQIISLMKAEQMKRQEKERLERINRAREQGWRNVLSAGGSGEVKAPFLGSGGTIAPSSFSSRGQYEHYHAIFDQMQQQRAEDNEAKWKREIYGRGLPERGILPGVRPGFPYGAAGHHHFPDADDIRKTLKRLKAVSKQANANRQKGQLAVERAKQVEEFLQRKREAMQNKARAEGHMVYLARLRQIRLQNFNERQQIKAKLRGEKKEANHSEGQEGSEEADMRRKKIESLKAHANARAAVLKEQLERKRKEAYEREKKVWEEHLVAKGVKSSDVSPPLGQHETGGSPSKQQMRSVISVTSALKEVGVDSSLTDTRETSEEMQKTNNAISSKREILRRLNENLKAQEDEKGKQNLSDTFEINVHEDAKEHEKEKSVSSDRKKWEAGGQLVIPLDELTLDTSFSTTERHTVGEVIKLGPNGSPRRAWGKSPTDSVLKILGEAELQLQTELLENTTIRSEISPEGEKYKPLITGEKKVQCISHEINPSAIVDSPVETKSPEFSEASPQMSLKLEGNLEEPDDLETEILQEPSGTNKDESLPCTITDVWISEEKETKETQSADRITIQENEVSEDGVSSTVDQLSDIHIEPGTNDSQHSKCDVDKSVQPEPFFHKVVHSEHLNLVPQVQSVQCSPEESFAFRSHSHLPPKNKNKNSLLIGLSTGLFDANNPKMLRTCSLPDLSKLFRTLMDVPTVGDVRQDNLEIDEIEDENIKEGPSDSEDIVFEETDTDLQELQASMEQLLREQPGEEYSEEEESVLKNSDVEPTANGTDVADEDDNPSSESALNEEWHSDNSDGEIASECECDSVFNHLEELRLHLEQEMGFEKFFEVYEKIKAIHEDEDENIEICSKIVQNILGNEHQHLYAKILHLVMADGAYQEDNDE
Text: as §1

[28] = target: MAPK8 (JNK1) (Homo sapiens (Human), UniProt P45983); assay: SelectScreen Kinase Profiling: MAPK8; format: biochemical; conditions: 300-350 nM
Text: as §1

[29] = target: ACVR1B (ALK4) (Homo sapiens (Human), UniProt P36896); assay: SelectScreen Kinase Profiling: ACVR1B; format: biochemical; conditions: 300-350 nM
Text: as §1

[30] = target: RPS6KB1 (p70S6K) (Homo sapiens (Human), UniProt P23443); assay: SelectScreen Kinase Profiling: RPS6KB1; format: biochemical; conditions: 300-350 nM
Text: as §1

[31] = target: KIT (Homo sapiens (Human), UniProt P10721); assay: SelectScreen Kinase Profiling: KIT; format: biochemical; conditions: 300-350 nM
Text: as §1

[32] = target: IGF1R (Homo sapiens (Human), UniProt P08069); assay: SelectScreen Kinase Profiling: IGF1R; format: biochemical; conditions: 300-350 nM
Text: as §1

[33] = target: KDR (VEGFR2) (Homo sapiens (Human), UniProt P35968); assay: SelectScreen Kinase Profiling: KDR; format: biochemical; conditions: 300-350 nM
Text: as §1

[34] = target: EPHA2 (Homo sapiens (Human), UniProt P29317); assay: SelectScreen Kinase Profiling: EPHA2; format: biochemical; conditions: 300-350 nM
Text: as §1

[35] = target: MAPK1 (ERK2) (Homo sapiens (Human), UniProt P28482); assay: SelectScreen Kinase Profiling: MAPK1; format: biochemical; conditions: 300-350 nM
Text: as §1

[36] = target: GSK3B (GSK3 beta) (Homo sapiens (Human), UniProt P49841); assay: SelectScreen Kinase Profiling: GSK3B; format: biochemical; conditions: 300-350 nM
Text: as §1

[37] = target: MAP2K1 (MEK1) (Homo sapiens (Human), UniProt Q02750); assay: SelectScreen Kinase Profiling: MAP2K1; format: biochemical; conditions: 300-350 nM
Text: as §1

[38] = target: IRAK4 (Homo sapiens (Human), UniProt Q9NWZ3); assay: SelectScreen Kinase Profiling: IRAK4; format: biochemical; conditions: 300-350 nM
Text: as §1

[39] = target: PHKG2 (Homo sapiens (Human), UniProt P15735); assay: SelectScreen Kinase Profiling: PHKG2; format: biochemical; conditions: 300-350 nM
Text: as §1

[40] = target: PRKACA (PKA) (Homo sapiens (Human), UniProt P17612); assay: SelectScreen Kinase Profiling: PRKACA; format: biochemical; conditions: 300-350 nM
Text: as §1

[41] = target: MET (cMet) (Homo sapiens (Human), UniProt P08581); assay: SelectScreen Kinase Profiling: MET; format: biochemical; conditions: 300-350 nM
Text: as §1

[42] = target: FLT3 (Homo sapiens (Human), UniProt P36888); assay: SelectScreen Kinase Profiling: FLT3; format: biochemical; conditions: 300-350 nM
Text: as §1

[43] = target: MAP4K4 (HGK) (Homo sapiens (Human), UniProt O95819); assay: SelectScreen Kinase Profiling: MAP4K4; format: biochemical; conditions: 300-350 nM
Text: as §1

[44] = system: Src; conditions: quoted in column head, BMCL 2005 p1931; cited from earlier work
[45] = target: PAK4 (Homo sapiens (Human), UniProt O96013); assay: SelectScreen Kinase Profiling: PAK4; format: biochemical; conditions: 300-350 nM
Text: as §1

[46] = target: FGFR1 (Homo sapiens (Human), UniProt P11362); assay: SelectScreen Kinase Profiling: FGFR1; format: biochemical; conditions: 300-350 nM
Text: as §1

## CCN(CC)CCOc1ccc(Nc2ncc3cc(-c4c(Cl)cccc4Cl)c(=O)n(C)c3n2)cc1 [Compound 1 BMCL, 2005, p1931, reference compound]
[1]
  Inhibition ABL1: + (Inhibition >75% at 300-350 nM)
[2]
  Inhibition MAPKAPK2: − (Inhibition <75% @ 300-350 nM)
[3]
  Inhibition ROCK1: − (Inhibition <75% @ 300-350 nM)
[4]
  Inhibition ERBB2 (HER2): − (Inhibition <75% @ 300-350 nM)
[5]
  Inhibition LCK: + (Inhibition >75% at 300-350 nM)
[6]
  Inhibition JAK3: + (Inhibition >75% at 300-350 nM)
[7]
  Inhibition RET: + (Inhibition >75% at 300-350 nM)
[8]
  Inhibition PIM1: − (Inhibition <75% @ 300-350 nM)
[9]
  Inhibition BTK: + (Inhibition >75% at 300-350 nM)
[10]
  Inhibition TEK (Tie2): − (Inhibition <75% @ 300-350 nM)
[11]
  Inhibition IKBKB (IKK beta): − (Inhibition <75% @ 300-350 nM)
[12]
  Inhibition AKT1 (PKB alpha): − (Inhibition <75% @ 300-350 nM)
[13]
  Inhibition PLK1: − (Inhibition <75% @ 300-350 nM)
[14]
  Inhibition DYRK3: − (Inhibition <75% @ 300-350 nM)
[15]
  Inhibition AURKA (Aurora A): − (Inhibition <75% @ 300-350 nM)
[16]
  Inhibition SYK: − (Inhibition <75% @ 300-350 nM)
[17]
  Inhibition INSR: − (Inhibition <75% @ 300-350 nM)
[18]
  Inhibition NTRK1 (TRKA): − (Inhibition <75% @ 300-350 nM)
[19]
  Inhibition CSNK2A1 (CK2 alpha 1): − (Inhibition <75% @ 300-350 nM)
[20]
  Inhibition MAPK14 (p38 alpha): + (Inhibition >75% at 300-350 nM)
[21]
  Inhibition PRKCB1 (PKC beta I): − (Inhibition <75% @ 300-350 nM)
[22]
  Inhibition CHEK1 (CHK1): − (Inhibition <75% @ 300-350 nM)
[23]
  Inhibition FRAP1 (mTOR): − (Inhibition <75% @ 300-350 nM)
[24]
  Inhibition CSNK1G2 (CK1 gamma 2): − (Inhibition <75% @ 300-350 nM)
[25]
  Inhibition MARK2: + (Inhibition >75% at 300-350 nM)
[26]
  Inhibition SRC: + (Inhibition >75% at 300-350 nM)
[27]
  Inhibition NEK1: − (Inhibition <75% @ 300-350 nM)
[28]
  Inhibition MAPK8 (JNK1): − (Inhibition <75% @ 300-350 nM)
[29]
  Inhibition ACVR1B (ALK4): + (Inhibition >75% at 300-350 nM)
[30]
  Inhibition RPS6KB1 (p70S6K): − (Inhibition <75% @ 300-350 nM)
[31]
  Inhibition KIT: + (Inhibition >75% at 300-350 nM)
[32]
  Inhibition IGF1R: − (Inhibition <75% @ 300-350 nM)
[33]
  Inhibition KDR (VEGFR2): + (Inhibition >75% at 300-350 nM)
[34]
  Inhibition EPHA2: + (Inhibition >75% at 300-350 nM)
[35]
  Inhibition MAPK1 (ERK2): − (Inhibition <75% @ 300-350 nM)
[36]
  Inhibition GSK3B (GSK3 beta): − (Inhibition <75% @ 300-350 nM)
[37]
  Inhibition MAP2K1 (MEK1): − (Inhibition <75% @ 300-350 nM)
[38]
  Inhibition IRAK4: − (Inhibition <75% @ 300-350 nM)
[39]
  Inhibition PHKG2: − (Inhibition <75% @ 300-350 nM)
[40]
  Inhibition PRKACA (PKA): − (Inhibition <75% @ 300-350 nM)
[41]
  Inhibition MET (cMet): − (Inhibition <75% @ 300-350 nM)
[42]
  Inhibition FLT3: + (Inhibition >75% at 300-350 nM)
[43]
  Inhibition MAP4K4 (HGK): + (Inhibition >75% at 300-350 nM)
[44]
  IC50: 6 nM
[45]
  Inhibition PAK4: − (Inhibition <75% @ 300-350 nM)
[46]
  Inhibition FGFR1: + (Inhibition >75% at 300-350 nM)
